Reference: US11371055B2, “Herbicide resistance genes” (CORTEVA AGRISCIENCE LLC, priority 2005, dated 2022)

Experiments:
[1] = system: AAD-12 (v1) transformed T0 tobacco events (pDAS1580); experiment: Postemergence herbicide tolerance in T0 tobacco; assay type: in vivo, Nicotiana tabacum; conditions: 560 g ae/ha fluroxypyr
Description: T0 plants from each of the 19 events were challenged with a wide range of 2,4-D, triclopyr, or fluroxypyr sprayed on plants that were 3-4 inches tall. Spray applications were made as previously described using a track sprayer at a spray volume of 187 L/ha. 2,4-D dimethylamine salt (Riverside Corp) was applied at 0, 140, 560, or 2240 g ae/ha to representative clones from each event mixed in deionized water. Fluroxypyr was likewise applied at 35, 140, or 560 g ac/ha. Triclopyr was applied at 70, 280, or 1120 g ae/ha. Each treatment was replicated 1-3 times. Injury ratings were recorded 3 and 14 DAT. Every event tested was more tolerant to 2,4-D than the untransformed control line KY160. In several events, some initial auxinic herbicide-related epinasty occurred at doses of 560 g ae/ha 2,4-D or less. Some events were uninjured at 2,4-D applied at 2240 g ac/ha (equivalent to 4× field rate). On the whole, AAD-12 (v1) events were more sensitive to fluroxypyr, followed by triclopyr, and least affected by 2,4-D. The quality of the events with respect to magnitude of resistance was discerned using T0 plant responses to 560 g ae/ha fluroxypyr. Events were categorized into “low” (>40% injury 14 DAT), “medium” (20-40% injury), “high” (<20% injury). Some events were inconsistent in response among replicates and were deemed “variable.”

[2] = system: wildtype Maverick soybeans; experiment: 2,4-D leaf paint (leaf flip assay) on wildtype soybean; assay type: in vivo, Glycine max; parameters: key to Leaf flip assay (18 HAT) Node N-2: 1 = Flip; 0 = No Flip
Description: Plants that are transferred to the greenhouse can be assayed for the presence of an active PAT gene further with a non-destructive manner by painting a section of leaf of the T0 primary transformant, or progeny thereof, with a glufosinate solution [0.05-2% v/v Liberty Herbicide, preferably 0.25-1.0% (v/v),=500-2000 ppm glufosinate, Bayer Crop Science]. Depending on the concentration used, assessment for glufosinate injury can be made 1-7 days after treatment. Plants can also be tested for 2,4-D tolerance in a non-destructive manner by selective application of a 2,4-D solution in water (0.25-1% v/v commercial 2,4-D dimethylamine salt formulation, preferably 0.5% v/v=2280 ppm 2,4-D ae) to the terminal leaflet of the newly expanding trifoliolate one or two, preferably two, nodes below the youngest emerging trifolioate. […] Glyphosate resistance (in plants transformed with constructs that contain EPSPS) or another glyphosate tolerance gene can be assessed in the T1 generation by postemergence applications of glyphosate with a dose range from 280-2240 g ae/ha glyphosate. […] Individual T0 plants were assessed for the presence of the coding region of the gene of interest (AAD-12 (v1) or PAT v6) and copy number. […]
A subset of the initial transformants were assessed in the T0 generation according to the methods above. […]

[3] = system: AAD-12 transformed T0 corn events; experiment: Postemergence herbicide tolerance in T0 corn; assay type: in vivo, Zea mays; conditions: 2240 g ae/ha 2,4-D
Experimental: Four T0 events were allowed to acclimate in the greenhouse and were grown until 2-4 new, normal looking leaves had emerged from the whorl (i.e., plants had transitioned from tissue culture to greenhouse growing conditions). Plants were grown at 27° C. under 16 hour light:8 hour dark conditions in the greenhouse. Plants were then treated with commercial formulations of either Pursuit® (imazethapyr) or 2,4-D Amine 4. […] Herbicide applications were made with a track sprayer at a spray volume of 187 L/ha, 50-cm spray height. Plants were sprayed with either a lethal dose of imazethapyr (70 g ae/ha) or a rate of 2,4-D DMA salt capable of significant injury to untransformed corn lines (2240 g ac/ha). A lethal dose is defined as the rate that causes >95% injury to the Hi-II inbred. Hi-II is the genetic background of the transformants of the present invention.

[4] = system: R-dichlorprop habituated PHL (Petite Havana) tobacco cells; experiment: 2,4-D dose response of tobacco cell suspension (PHL); assay type: cell-based
Experimental: A dose response study was conducted with both the R-dichlorprop habituated PHL cells and the R-dichlorprop habituated BY2 cells where R-dichlorprop was substituted directly for 2,4-D in culture media. Though the focus was on PHL, a dose response was also done with BY2 in case of possible future studies, as well as to help predict the dose response for PHL. For the dichlorprop habituated PHL dose response, the levels of 2,4-D used (on LSBY2C medium with R-dichlorprop) were 0 (the control), 1, 2, 3, 5, 8, 10, 12, 15, 18, 20, 40, 60, 80, […] mg/L 2,4-D. There were four replications per concentration. For the R-dichlorprop habituated BY2 dose response, the levels of 2,4-D used (on LSBY2C medium) were 0 (the control), 1, 2, 3, 5, 8, 10, 20, 30, 40, mg/L 2,4-D.

[5] = LSBY2C medium with R-dichlorprop

SMILES: Nc1c(Cl)c(F)nc(OCC(=O)O)c1Cl [Fluroxypyr]
- Relative Herbicide Tolerance ([1]; T0 event 1580[1]-004): High
- Relative Herbicide Tolerance ([1]; T0 event 1580[1]-005): Variable
- Relative Herbicide Tolerance ([1]; T0 event 1580[1]-008): Variable
- Relative Herbicide Tolerance ([1]; T0 event 1580[1]-011): High
- Relative Herbicide Tolerance ([1]; T0 event 1580[1]-015): High
- Relative Herbicide Tolerance ([1]; T0 event 1580[1]-016): High
- Relative Herbicide Tolerance ([1]; T0 event 1580[1]-017): High
- Relative Herbicide Tolerance ([1]; T0 event 1580[1]-018): Variable
- Relative Herbicide Tolerance ([1]; T0 event 1580[1]-019): Variable
- Relative Herbicide Tolerance ([1]; T0 event 1580[1]-022): Variable
- Relative Herbicide Tolerance ([1]; T0 event 1580[1]-023): Variable
- Relative Herbicide Tolerance ([1]; T0 event 1580[1]-024): Variable
- Relative Herbicide Tolerance ([1]; T0 event 1580[1]-026): Variable
- Relative Herbicide Tolerance ([1]; T0 event 1580[1]-027): Low
- Relative Herbicide Tolerance ([1]; T0 event 1580[1]-029): Variable
- Relative Herbicide Tolerance ([1]; T0 event 1580[1]-030): High
- Relative Herbicide Tolerance ([1]; T0 event 1580[1]-031): High
- Relative Herbicide Tolerance ([1]; T0 event 1580[1]-032): High

SMILES: O=C(O)COc1ccc(Cl)cc1Cl [2,4-D, 2,4-dichlorophenoxyacetic acid]
- Leaf flip assay (18 HAT) Node N-2 ([2]; 2,4-D leaf paint, Maverick WT plants (WT-10, WT-2)): 1
- response to 2,4-D leaf painting ([2]; 2,4-D solution applied to terminal leaflet): did
- % injury 14 DAT ([3]; T0 corn event 4101(0)003.001): 0%
- % injury 14 DAT ([3]; T0 corn event 4101(0)003.003): 0%
- % injury 14 DAT ([3]; T0 corn event 4101(0)005.001): 0%
- growth of PHL suspension ([4]; 10-mg/L 2,4-D): slight growth
- 2,4-D concentrations with growth comparable to control treatments [4, 5]: 1 to 8 mg/L
- lethal concentrations of 2,4-D [4, 5]: above 10 mg/L
